Entries after “also recorded” stand apart in the source; their conditions may differ.
Experiments:
shelterin complex [1] = molecular target: T1, shelterin complex (Homo sapiens, UniProt P54274); experiment: Mass photometry assay of TRF1 eviction from shelterin; type: biochemical
T1 construct: evicted full-length TRF1 from the shelterin complex; made in house; host or cells: Spodoptera frugiperda (Sf9) insect cells, MultiBac baculovirus
T1 sequence (P54274 1-439): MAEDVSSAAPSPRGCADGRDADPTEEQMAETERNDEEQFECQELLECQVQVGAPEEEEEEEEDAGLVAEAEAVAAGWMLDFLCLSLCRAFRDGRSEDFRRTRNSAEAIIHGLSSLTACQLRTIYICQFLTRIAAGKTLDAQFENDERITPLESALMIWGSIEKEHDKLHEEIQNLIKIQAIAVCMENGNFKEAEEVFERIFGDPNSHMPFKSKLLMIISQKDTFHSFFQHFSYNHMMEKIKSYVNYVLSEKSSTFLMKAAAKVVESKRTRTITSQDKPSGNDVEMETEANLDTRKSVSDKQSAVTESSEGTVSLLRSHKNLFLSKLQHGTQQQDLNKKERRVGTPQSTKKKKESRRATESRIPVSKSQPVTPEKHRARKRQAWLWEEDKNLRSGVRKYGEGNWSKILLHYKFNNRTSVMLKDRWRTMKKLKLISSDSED
Text: We developed a mass-photometry based assay to evaluate the ability of compound 40 to disrupt the TRF1TRFH:TIN2TBM interaction and subsequently evict TRF1 from the full shelterin complex. We expressed recombinant shelterin in insect cells (see Materials and Methods) and purified it via affinity and size exclusion chromatography (SEC). Given the compositional heterogeneity of shelterin, also observed by Zinder et al. 2022[42], we enriched a complex of approximately 700 kDa by serial SEC. The resulting complex was incubated with increasing concentrations of compound 40, and the resulting mass distribution was analysed by mass photometry. Due to disassembly of the complex upon dilution to nanomolar concentrations required for mass photometry, we stabilised it by limited crosslinking using glutaraldehyde prior to dilution to assess potential TRF1 dissociation (Supplementary Fig. 6). With increasing concentrations of compound 40, we observed an increase in a peak around 100 kDa, corresponding in size to the full-length TRF1 dimer (Fig. 6a; Supplementary Fig. 7a, b), consistent with eviction of TRF1 from shelterin. […] Additionally, the mass photometry peak of shelterin shifted and reduced in size by approximately 100 kDa upon the addition of > 250 µM of compound 40, indicating the removal of TRF1 from the complex (Fig. 6a). To confirm whether the evicted entity corresponds to TRF1, we analysed the full shelterin complex by SDS-PAGE, upon co-incubation with increasing amounts of compound 40 or control compound 60 and subsequent mild crosslinking, analogous to the mass photometry experiment. […] To confirm its identity, we performed Western blotting, probing for TRF1, TRF2 and TIN2. This analysis confirmed that the released protein is TRF1 (Fig. 6c, f).
Mass Photometry (MP) experiments were performed using a Refeyn OneMP instrument. […] Data were processed and analysed using Refeyn DiscoverMP software (v2024 R2). Gaussian fits for the mass distribution histograms, mass measurements and percentage abundances (of peak counts to total counts) were determined for each peak observed.

shelterin complex [2] = molecular target: T1, shelterin complex; experiment: SDS-PAGE/Western blot of crosslinked shelterin after compound incubation; type: biochemical
Text: We developed a mass-photometry based assay to evaluate the ability of compound 40 to disrupt the TRF1TRFH:TIN2TBM interaction and subsequently evict TRF1 from the full shelterin complex. We expressed recombinant shelterin in insect cells (see Materials and Methods) and purified it via affinity and size exclusion chromatography (SEC). Given the compositional heterogeneity of shelterin, also observed by Zinder et al. 2022[42], we enriched a complex of approximately 700 kDa by serial SEC. The resulting complex was incubated with increasing concentrations of compound 40, and the resulting mass distribution was analysed by mass photometry. […] To confirm whether the evicted entity corresponds to TRF1, we analysed the full shelterin complex by SDS-PAGE, upon co-incubation with increasing amounts of compound 40 or control compound 60 and subsequent mild crosslinking, analogous to the mass photometry experiment. […]
For SDS-PAGE and Western blotting studies, SEC-purified shelterin was diluted to 0.9 µM and incubated with increasing concentrations of compound 40 or 60 (negative control) in the same range as for the MP experiment (from 0 to 300 µM). […] The samples were then analysed by SDS-PAGE, followed by either Coomassie staining or Western blotting. […] Normalised signal intensities from three independent experiments were analysed and plotted using GraphPad Prism (v10.5.0).

COc1cc(COc2ccc(S(=O)(=O)[O-])c3ccccc23)cc(OC)c1.[Na+] [Compound 40]
concentration at which TRF1 eviction reaches a plateau (shelterin complex [1]; 1.25 µM shelterin, 100-300 µM compound, 1 h, glutaraldehyde crosslinking, n = 1): 250 µM
eviction of TRF1 from shelterin (100-kDa TRF1 peak) (shelterin complex [1]; compound 40 at 100-300 µM, compound 60 at 300 µM): expels TRF1 from purified shelterin; also recorded: concentration-dependent increase in eviction of TRF1
reduction in size of shelterin mass photometry peak (shelterin complex [1]; upon addition of > 250 µM compound): around 100 kDa
release of TRF1 (species migrating between 100 and 150 kDa) (shelterin complex [2]; 0.9 µM shelterin, 0-300 µM compound, 0.075% glutaraldehyde): dose-dependently liberated
release of TRF2 and TIN2 from shelterin (shelterin complex [2]; Western blot probing for TRF2 and TIN2): TRF2 was not released, nor was TIN2
